The conditions of series [1]: cited from earlier work.
The test system of a further series is hair of the beard area. Kind of series: Topical 3% cidofovir ointment applied once a day to beard area of a patient: alopecia and local tolerability. It counts as in vivo, human. As for the experimental part: A 3% topical ointment of cidofovir was prepared by mixing 3 g of cidofovir in 97 g of petrolatum.
A 3% topical preparation of cidofovir was applied to the beard area of a patient. The formulation was applied by the patient once a day to the affected areas of the face for the treatment of verruca vulgaris (warts). […] After 4-8 weeks the patient had alopecia in the areas of the face where the medication was applied. This was the only hair bearing area that the patient applied the medication to. The warts resolved in approximately 2-3 months.
The hair cycle time of the face is the shortest on the body. At any one point in time, up to 80% of the hair on the face (i.e. the beard area) is in the active growth phase.

A further series deals with verruca vulgaris (warts). Kind of series: Topical 3% cidofovir applied to the face for treatment of verruca vulgaris (warts). The class given is in vivo, human. As to conditions: 3% topical ointment, once a day, one patient. The method, then:
A 3% topical ointment of cidofovir was prepared by mixing 3 g of cidofovir in 97 g of petrolatum. A 3% topical preparation of cidofovir was applied to the beard area of a patient. The formulation was applied by the patient once a day to the affected areas of the face for the treatment of verruca vulgaris (warts). […] After 4-8 weeks the patient had alopecia in the areas of the face where the medication was applied. This was the only hair bearing area that the patient applied the medication to. The warts resolved in approximately 2-3 months.

On to `Nc1nc2c(ncn2COCCO)c(=O)[nH]1` [Acyclovir], for which the oral bioavailability result in series [1] is recorded as “low oral bioavailability”.
Take `Nc1ccn(C[C@@H](CO)OCP(=O)(O)O)c(=O)n1` [cidofovir, (S)-1-[3-hydroxy-2-(phosphonylmethoxy)propyl]cytosine]: the “time until alopecia in the areas of the face where the medication was applied” value in the series with hair of the beard area (3% topical ointment in petrolatum, once a day, beard area, one patient) is listed as 4-8 weeks. Moreover, the “local reaction to application” value with hair of the beard area (3% topical ointment, once a day, face, application discontinued for several days then resumed) is “mild inflammation”. Further, the “hair regrowth upon discontinuation of topical cidofovir” value with hair of the beard area (after stopping 3% topical cidofovir, beard area) is reported as “the hair grew back”. Also, in the series on verruca vulgaris (warts), the “time until warts resolved” value was 2-3 months.

Source of the values: US8524690B2, “DNA polymerase inhibitors composition and methods” (The Trustees of the University of Pennsylvania, priority 2007, dated 2013).
